# US7501430B2 (ArQule, Inc., priority 2006, dated 2009)
# What was measured:
# [1] = system: DLD1 human colon cancer cell line (K-ras G13D); test: MTS cell growth assay, DLD1; format: cell-based; details: DLD-1, DLD1 cells, 72 hours, read-out: IC50 DLD1 KRAS (G13D)
# Description: (§1) Compounds of the present invention have been tested for activity against a variety of cancer cell lines. The ability of compounds to inhibit cell growth in this assay is correlated with the reduction of dehydrogenase enzyme activity found in metabolically active cells.
# (§2) Materials: A375 (a human melanoma cell line that harbors the B-RAF mutation V600E), Colo-205 (a human colon cancer cell line that harbors the B-RAF mutation V600E), DLD1 (a human colon cancer cell line that harbors the K-ras mutation G13D), SK-MEL-2 (a human melanoma cell line that harbors the N-ras mutation Q61R), SK-MEL-28 (a human melanoma cell line that harbors the B-RAF mutation V600E), and SW480 (a human colon cancer cell line that harbors the K-ras mutation G12V) cells from ATCC were maintained at 37° C., 5% CO2 in DMEM media supplemented with 10% fetal bovine serum, penicillin/streptomycin and fungizone (Invitrogen). NCM460 (Incell), a normal colon epithelial cell line, and human mammary epithelial cells (Cambrex) were maintained at 37° C., 5% CO2 in DMEM and HEBM media (Cambrex), respectively.
# (§3) Methods: Test compounds were dissolved and diluted to 300× in DMSO then diluted 1:40 in DMEM. Cells were seeded into 96-well tissue culture plates at 2-5×10^3 per well and cultured at 37° C. for 24 h. Cells were incubated with test compounds for 72 hours followed by incubation with tetrazolium compound (3-(4,5-dimethylthiazol-2-yl)-5-(3-carboxymethoxyphenyl)-2-(4-sulfophenyl)-2H-tetrazolium, inner salt; MTS) and the electron coupling reagent, phenazine methosulfate (PMS) for 4 hr. […] The measurement of the absorbance of the formazan was assessed using an ENVISION™ (Perkin Elmer) microplate reader at 492 nm. The calculated IC50 value is the concentration of the test compound that causes a 50% decrease in the absorbance.
# [2] = system: SK-MEL-28 human melanoma cell line (B-RAF V600E); test: MTS cell growth assay, SK-MEL-28; format: cell-based; details: SKMEL28 cells, 72 hours
# Description: as §1, §2, §3
# [3] = system: Colo-205 human colon cancer cell line (B-RAF V600E); test: MTS cell growth assay, Colo-205; format: cell-based; details: Colo205 cells, 72 hours
# Description: as §1, §2, §3
# [4] = system: A375 human melanoma cell line (B-RAF V600E); test: MTS cell growth assay, A375; format: cell-based; details: A-375, A375 cells, 72 hours
# Description: as §1, §2, §3
# mutant B-RAF = molecular target: T1, mutant B-RAF (Homo sapiens, UniProt P15056, V600E); test: RAF biochemical assay (MEK-1 phosphorylation, anti-phospho MEK1/2 detection); details: read-out: Mutant B-RAF IC50
# T1 construct: purchased Upstate (Charlottesville, Va.)
# T1 sequence (P15056 whole entry V600E): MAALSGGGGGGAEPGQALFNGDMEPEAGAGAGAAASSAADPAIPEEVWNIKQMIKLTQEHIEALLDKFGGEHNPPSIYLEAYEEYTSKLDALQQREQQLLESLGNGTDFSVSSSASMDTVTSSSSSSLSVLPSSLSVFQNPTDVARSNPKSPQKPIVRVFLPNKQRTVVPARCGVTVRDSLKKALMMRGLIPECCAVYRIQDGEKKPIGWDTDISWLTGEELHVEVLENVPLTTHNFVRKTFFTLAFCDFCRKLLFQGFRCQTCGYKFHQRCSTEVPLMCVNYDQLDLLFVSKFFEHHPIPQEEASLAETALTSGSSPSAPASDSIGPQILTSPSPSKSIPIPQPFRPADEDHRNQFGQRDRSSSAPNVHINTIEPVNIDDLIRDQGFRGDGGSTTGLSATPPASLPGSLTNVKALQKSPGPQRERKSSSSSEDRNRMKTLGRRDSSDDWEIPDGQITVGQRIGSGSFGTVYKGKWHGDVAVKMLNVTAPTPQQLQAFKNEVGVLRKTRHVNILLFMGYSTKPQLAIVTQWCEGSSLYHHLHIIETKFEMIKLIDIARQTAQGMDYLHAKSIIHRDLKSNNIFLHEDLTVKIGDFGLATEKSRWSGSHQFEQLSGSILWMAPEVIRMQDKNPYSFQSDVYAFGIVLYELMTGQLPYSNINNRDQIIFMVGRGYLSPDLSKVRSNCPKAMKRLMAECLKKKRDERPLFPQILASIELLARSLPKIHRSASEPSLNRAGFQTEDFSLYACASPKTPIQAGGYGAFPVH
# Outline: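 Detection is by ELISA: after a 30 min room-temperature reaction, plate-captured GST-MEK-1 is probed with anti-phospho MEK1/2, then an AP-tagged secondary antibody with fluorescent Attophos read-out.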
# [5] = system: SK-MEL-2 human melanoma cell line (N-ras Q61R); test: MTS cell growth assay, SK-MEL-2; format: cell-based; details: SKMEL2 cells, 72 hours, read-out: IC50 SKMEL2 NRAS (Q61R)
# Description: as §1, §2, §3
# [6] = system: NCM460 normal colon epithelial cell line; test: MTS cell growth assay, NCM460; format: cell-based; details: Homo sapiens, NCM460 normal cells, 72 hours
# Description: as §1, §2, §3
# [7] = system: SW480 human colon cancer cell line (K-ras G12V); test: MTS cell growth assay, SW480; format: cell-based; details: SW480 cells, 72 hours, read-out: IC50 SW480 KRAS (G12V)
# Description: as §1, §2, §3
# [8] = system: human mammary epithelial cells (HMEC, normal); test: MTS cell growth assay, HMEC; format: cell-based; details: 72 hours
# Description: as §1, §2, §3
smiles,measurement,setting,value
"COc1ccccc1-c1nc2sccn2c1-c1ccnc(N[C@@H]2CCCN(S(=O)(=O)c3ccc(Cl)cc3)C2)n1 [Example 105, N-{(3R)-1-[(4-chlorophenyl)sulfonyl]piperidin-3-yl}-4-[6-(2-methoxyphenyl)imidazo[2,1-b][1,3]thiazol-5-yl]pyrimidin-2-amine]",IC50,[1],4730 nM
same,IC50,[2],480 nM
same,IC50,[3],380 nM
same,IC50,[4],310 nM
same,IC50,mutant B-RAF,250 nM
same,IC50,[5],1100 nM
same,IC50,[6],6680 nM
same,IC50,[7],1280 nM
same,IC50,[8],2720 nM
"COc1cccc(-c2nc3sccn3c2-c2ccnc(N[C@@H]3CCCN(C(=O)c4ccncc4)C3)n2)c1 [Example 112, N-[(3R)-1-isonicotinoylpiper-idin-3-yl]-4-[6-(3-methoxyphenyl)imidazo[2,1-b][1,3]thiazol-5-yl]pyrimidin-2-amine]",IC50,[1],3330 nM
same,IC50,[2],860 nM
same,IC50,[3],330 nM
same,IC50,[4],270 nM
same,IC50,mutant B-RAF,> 5000 nM
same,IC50,[5],910 nM
same,IC50,[6],4710 nM
same,IC50,[7],2740 nM
same,IC50,[8],2240 nM
"O=S(=O)(c1ccc(Cl)cc1)N1CCC(Nc2nccc(-c3c(-c4cccc(O)c4)nc4sccn34)n2)CC1 [Example 267, 3-{5-[2-({1-[(4-chlorophenyl)sulfonyl]piperidin-4-yl}amino)pyrimidin-4-yl]imidazo[2,1-b][1,3]thiazol-6-yl}phenol]",IC50,[1],1760 nM
same,IC50,[2],380 nM
same,IC50,[3],190 nM
same,IC50,[4],270 nM
same,IC50,mutant B-RAF,31 nM
same,IC50,[5],870 nM
same,IC50,[6],2050 nM
same,IC50,[7],2130 nM
same,IC50,[8],1070 nM
"CCNC(=O)N1CCC(Nc2nccc(-c3c(-c4cccc(O)c4)nc4sccn34)n2)CC1 [Example 268, N-ethyl-4-({4-[6-(3-hydroxyphenyl)imidazo[2,1-b][1,3]thiazol-5-yl]pyrimidin-2-yl}amino)piperidine-1-carboxamide]",IC50,[1],4030 nM
same,IC50,[2],800 nM
same,IC50,[3],360 nM
same,IC50,[4],370 nM
same,IC50,mutant B-RAF,9 nM
same,IC50,[5],1330 nM
same,IC50,[6],2540 nM
same,IC50,[7],4400 nM
same,IC50,[8],720 nM
"O=C(c1ccc(F)cc1)N1CCC(Nc2nccc(-c3c(-c4ccc(F)cc4)nc4sccn34)n2)CC1 [Example 289, N-[1-(4-fluorobenzoyl)piperidin-4-yl]-4-[6-(4-fluorophenyl)imidazo[2,1-b][1,3]thiazol-5-yl]pyrimidin-2-amine]",IC50,[1],3080 nM
same,IC50,[2],670 nM
same,IC50,[3],180 nM
same,IC50,[4],150 nM
same,IC50,mutant B-RAF,> 10000 nM
same,IC50,[5],990 nM
same,IC50,[6],4170 nM
same,IC50,[7],2970 nM
same,IC50,[8],1240 nM
